Experimental data taken from patent US20210002725A1, “METHODS FOR THE DIAGNOSIS OF METABOLIC DISORDERS USING EPIMETABOLIC SHIFTERS, MULTIDIMENSIONAL INTRACELLULAR MOLECULES, OR ENVIRONMENTAL INFLUENCES” (Berg LLC, priority 2009, published 2021).

Legend:
variety of cell types = experiment: Western blot analysis (Bcl-xL, Vimentin, oxidative phosphorylation complexes, mitochondrial membrane integrity proteins); assay type: cell-based; settings: 50 or 100 μM Q10
Method: Approximately 50 μg of protein were assayed per sample by immunoblotting. All treatments were run in triplicate with controls. […] The primary antibodies were incubated overnight at 4 degrees C. in a 5% BSA and TBST solution. Secondary antibodies were incubated for one hour at 4 degrees. All antibodies were purchased from Cell Signaling Technology. Antibodies were used at a ratio of 1:1000, with the exception of βActin at a ratio of 1:5000. Blots were developed and results were quantified using the NIH Java based densitometer analysis software Image J. All blots were also probed for and normalized to their respective βActin expression.
The first experiment processed and evaluated by Western blot and 2-D gel electrophoresis was carried out on the skin cancer cell line SKMEL-28.
A variety of cell types were evaluated by Western blot analysis against an antibody for Bcl-xL (FIG. 14), an antibody for Vimentin (FIG. 15), a series of antibodies for mitochondrial oxidative phosphorylation function (FIGS. 16-21) and against a series of antibodies related to mitochondrial membrane integrity (FIGS. 22-27).

[1] = system: Lactate Dehydrogenase (LDH); experiment: Western blot of Lactate Dehydrogenase levels in cells treated with Coenzyme Q10; assay type: cell-based, human; settings: HepG2, 5 g, 24 h, 50 μM
Method: The samples were processed and run on a 4-12% Bis-Tris Novex NuPAGE gel as described above. The gels were run, transferred and stained essentially as described above.
After transfer each blot was dried for 15-20 minutes, activated with methanol for 5 seconds, washed with water for 5 minutes, and TBST for 15 minutes. The blots were blocked for 1 hour with 5% blocking reagent in TBS-T at room temperature and then washed 3 times with TBS-T (1×-15′; 2×5′ each) and probed with the primary antibody for Lactate Dehydrogenase (abcam ab2101; polyclonal) in 5% BSA (at 1:1000 dilutions) by incubation overnight at 4 deg C. with shaking. After the overnight incubation with primary antibody for Lactate Dehydrogenase, the blots were washed 3 times with TBS-T (1×-15′; 2×5′ each) and probed with the secondary antibody (rabbit antigoat; 1:10,000 dilution) for 1 h at room temperature. After 1 h of incubation with secondary antibodies, the blots were washed 3 times with TBS-T (1×-15′; 2×5′ each) and then incubated with ECF reagent for 5 mins and then each blot scanned with 5100 Fuji Laser scanner at 25 uM resolution, 16 bit, green laser, at 400V and at 500 V. […]
The levels of LDH and PDH were determined by probing the blots successively with primary antibodies for LDH and PDH, essentially as described above. […]

## COC1=C(OC)C(=O)C(C/C=C(\C)CC/C=C(\C)CC/C=C(\C)CC/C=C(\C)CC/C=C(\C)CC/C=C(\C)CC/C=C(\C)CC/C=C(\C)CC/C=C(\C)CCC=C(C)C)=C(C)C1=O [Q10, Coenzyme Q10]
Variety of cell types
  levels of examined proteins (Western blot): several of the examined proteins were upregulated or downregulated
[1]
  Lactate Dehydrogenase Normalized Volume: 7900
